In patent publication EP0479888B1, “IMPROVED BUILDER-CONTAINING AQUEOUS CLEANER/DEGREASER MICROEMULSION COMPOSITIONS” (BUCKEYE INTERNATIONAL, INC., priority 1989, dated 1991):

Settings: water

## CCCCOC(C)=O [n-butyl acetate]
  aqueous ambient temperature solubility: 0.7 wt.%
